According to US20020042079A1, “METHODS AND AGENTS FOR MEASURING AND CONTROLLING MULTIDRUG RESISTANCE” (priority 1994, published 2002):
Entries after “also recorded” stand apart in the source; their conditions may differ.

Key:
MCF-7/ADR cells = experiment: Transport of BODIPY-sphingomyelin from TGN to cell surface; assay type: cell-based, human; conditions: Tamoxifen 10 μM
Procedure: When accumulated at high concentrations, BODIPY-sphingomyelin undergoes a green to red shift in fluorescence emission.
Cells were fixed by washing two times in cold fixing buffer (1% paraformaldehyde, 0.1 M sodium cacodylate, 0.1 M sucrose, pH 7.2) followed by a 15 minute incubation in fixing buffer on ice, and then washing two times with cold fixing buffer without paraformaldehyde. […] Biophys.

CHO cells = experiment: Acridine orange labeling of acidic compartments; assay type: cell-based, Chinese Hamster; conditions: 10 μM tamoxifen, thirty minutes
Procedure: Labeling of Cells with Acridine Orange: To examine intracellular acidic compartments, acridine orange (6 μM in medium from a 10 mM stock in water) was added directly to cells in the Lab-Tek chambers and the cells were incubated for 15 minutes. Cells in the presence of acridine orange were then examined utilizing an excitation at 488 nm and dual emission confocal images were simultaneously recorded using both a 530-30 band pass barrier filter (green fluorescence) and a 605 nm long pass barrier filter (red fluorescence). Optical sections of the fluorescent samples were recorded at 0.5 micron intervals with a 60×oil immersion objective.
CHO cells are often used for transfection studies with Pgp since endogenous levels of the protein are non-existent, or too low to be measured [Debenham et al., Mol. Cell Biol., 2:881-889 (1982)].

CC/C(=C(\c1ccccc1)c1ccc(OCCN(C)C)cc1)c1ccccc1 [Tamoxifen]
sphingomyelin fluorescence remaining associated with the cells after two hours (MCF-7/ADR cells): more than 70%
red acridine orange fluorescence after Tamoxifen (CHO cells): substantially reduced the red acridine orange fluorescence; also recorded: loss of red-orange fluorescence from the cytoplasm of the CHO cells
